From patent US7652063B2, “10-hydroxy-11-dihydroprostaglandin analogs as selective EP4 agonists” (Allergan, Inc., priority 2004, dated 2010)

Experiments:
hEP4/Gqs5 = molecular target: T1, hEP4/Gqs5 (Homo sapiens, UniProt P35408); experiment: FLIPR calcium signal, hEP4; type: cell-based; conditions: HEK-293(EBNA) cells, read-out: FUNCTIONAL (nm) HEP4
T1 construct: expressed in transfected cells; host or cells: HEK-293(EBNA)
Experimental: (§1) Methods for Flipr™ Studies
(§2) HEK-293(EBNA) cells, stably expressing one type or subtype of recombinant human prostaglandin receptors (prostaglandin receptors expressed: hDP/Gqs5; hEP1; hEP2/Gqs5; hEP3A/Gqi5; hEP4/Gqs5; hFP; hIP; hTP), were cultured in 100 mm culture dishes in high-glucose DMEM medium containing 10% fetal bovine serum, 2 mM 1-glutamine, 250 μg/ml geneticin (G418) and 200 μg/ml hygromycin B as selection markers, and 100 units/ml penicillin G, 100 μg/ml streptomycin and 0.25 μg/ml amphotericin B.
(§3) (b) Calcium Signal Studies on the Flipr™
(§4) Cells were seeded at a density of 5×10^4 cells per well in Biocoat® Poly-D-lysine-coated black-wall, clear-bottom 96-well plates (Becton-Dickinson) and allowed to attach overnight in an incubator at 37° C. Cells were then washed two times with HBSS-HEPES buffer (Hanks Balanced Salt Solution without bicarbonate and phenol red, 20 mM HEPES, pH 7.4) using a Denley Cellwash plate washer (Labsystems). […]
(§5) Cells were excited with an Argon laser at 488 nm, and emission was measured through a 510-570 nm bandwidth emission filter (FLIPR™, Molecular Devices, Sunnyvale, Calif.). […] The peak increase in fluorescence intensity was recorded for each well. […] The peak fluorescence change in each drug-containing well was then expressed relative to the controls. […]

EP4 receptors = molecular target: T2, EP4 receptors (Homo sapiens, UniProt P35408); experiment: Radioligand binding, hEP4; conditions: HEK-293 membranes, competition vs 5 nM [3H]-PGE2
T2 construct: expressed in transfected cells; host or cells: HEK-293 (membrane fraction)
T2 sequence (P35408 whole entry): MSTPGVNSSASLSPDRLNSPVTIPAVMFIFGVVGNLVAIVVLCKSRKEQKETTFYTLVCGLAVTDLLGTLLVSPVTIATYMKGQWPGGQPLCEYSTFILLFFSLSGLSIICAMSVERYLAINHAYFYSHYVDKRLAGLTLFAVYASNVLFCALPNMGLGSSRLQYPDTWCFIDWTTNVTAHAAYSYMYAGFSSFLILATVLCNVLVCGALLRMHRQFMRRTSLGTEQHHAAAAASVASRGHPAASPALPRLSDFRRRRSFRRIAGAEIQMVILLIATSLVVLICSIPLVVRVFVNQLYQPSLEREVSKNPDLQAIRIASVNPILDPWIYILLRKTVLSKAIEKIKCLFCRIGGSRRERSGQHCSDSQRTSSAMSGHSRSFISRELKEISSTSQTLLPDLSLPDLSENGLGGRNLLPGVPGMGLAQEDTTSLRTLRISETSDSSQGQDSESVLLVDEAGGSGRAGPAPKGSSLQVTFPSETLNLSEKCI
Experimental: Cells Stably Expressing EP1, EP2, EP4 and FP Receptors
HEK-293 cells stably expressing the human or feline FP receptor, or EP1, EP2, or EP4 receptors were washed with TME buffer, scraped from the bottom of the flasks, and homogenized for 30 sec using a Brinkman PT 10/35 polytron. TME buffer was added to achieve a final 40 ml volume in the centrifuge tubes (the composition of TME is 100 mM TRIS base, 20 mM MgCl2, […]; 10N HCl is added to achieve a pH of 7.4).
The cell homogenate was centrifuged at 19000 r.p.m. for 20 min at 4° C. using a Beckman Ti-60 rotor. The resultant pellet was resuspended in TME buffer to give a final 1 mg/ml protein concentration, as determined by Biorad assay. Radioligand binding competition assays vs. [^3H-]17 -phenyl PGF2α (5 nM) were performed in a 100 μl volume for 60 min. Binding reactions were started by adding plasma membrane fraction. The reaction was terminated by the addition of 4 ml ice-cold TRIS-HCl buffer and rapid filtration through glass fiber GF/B filters using a Brandel cell harvester. The filters were washed 3 times with ice-cold buffer and oven dried for one hour.
[^3H-] PGE2 (specific activity 180 Ci mmol) was used as the radioligand for EP receptors. [^3H] […] 17-phenyl PGF2α and non-specific binding determined with 10^−5 M of unlabeled PGE2, or 17-phenyl PGF2α, according to receptor subtype studied.

HEP3D = molecular target: T3, HEP3D (Homo sapiens, UniProt P43115); experiment: Radioligand binding, hEP3D; conditions: competition vs 5 nM [3H]-PGE2
T3 sequence (P43115 1-374 isoform P43115-4): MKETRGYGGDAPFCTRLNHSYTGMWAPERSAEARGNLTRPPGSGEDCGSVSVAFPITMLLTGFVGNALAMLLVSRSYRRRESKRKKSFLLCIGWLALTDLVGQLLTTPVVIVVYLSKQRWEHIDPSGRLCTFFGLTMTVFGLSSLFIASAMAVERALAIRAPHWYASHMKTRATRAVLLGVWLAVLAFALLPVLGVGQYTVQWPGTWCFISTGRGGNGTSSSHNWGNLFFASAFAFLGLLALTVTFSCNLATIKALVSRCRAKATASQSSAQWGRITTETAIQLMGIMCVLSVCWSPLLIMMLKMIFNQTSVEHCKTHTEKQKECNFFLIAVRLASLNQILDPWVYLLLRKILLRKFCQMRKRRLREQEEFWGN

hTP = molecular target: T4, hTP (Homo sapiens, UniProt P21731); experiment: FLIPR calcium signal, hTP; type: cell-based; conditions: HEK-293(EBNA) cells, read-out: FUNCTIONAL (nm) HTP
T4 construct: expressed in transfected cells; host or cells: HEK-293(EBNA)
T4 sequence (P21731 1-343): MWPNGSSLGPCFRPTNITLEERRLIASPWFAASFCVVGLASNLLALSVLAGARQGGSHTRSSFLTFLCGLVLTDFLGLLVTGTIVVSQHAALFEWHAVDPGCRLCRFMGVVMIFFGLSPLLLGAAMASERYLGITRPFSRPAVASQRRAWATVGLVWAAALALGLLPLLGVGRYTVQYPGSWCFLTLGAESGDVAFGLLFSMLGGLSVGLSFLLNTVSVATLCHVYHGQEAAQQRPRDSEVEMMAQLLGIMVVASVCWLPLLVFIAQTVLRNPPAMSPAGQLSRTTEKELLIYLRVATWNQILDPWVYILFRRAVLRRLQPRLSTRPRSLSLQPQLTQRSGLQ
Experimental: as §1, §2, §3, §4, §5

T1 sequence (P35408 whole entry): as the sequence (P35408 whole entry) above

Row | Structure (SMILES) | EC50 (hEP4/Gqs5) [µM] | IC50 (EP4 receptors) [µM] | IC50 (HEP3D) [µM] | EC50 (hTP) [µM]
1 | O=C(O)CCC/C=C\C[C@H]1C(=O)C(O)C[C@@H]1/C=C/C(O)CCc1sc2ccccc2c1Cl (single isomer, unassigned) [Compound 9H] | 0.053 | 0.17 | > 10 | 
2 | O=C(O)CCC/C=C\C[C@H]1C(=O)C(O)C[C@@H]1/C=C/C(O)CCc1sc2ccccc2c1Cl (single isomer, unassigned) [Compound 9L] | 0.078 | 0.2 | 8.7 | > 10
